# Test results reported in patent publication US10160748B2 (AbbVie Inc., priority 2015, dated 2018).
# Molecular target: TNFα trimer (Homo sapiens, UniProt P01375)
# Assay: TNFα FP Competitive Binding Assay
# Details: FP binding assay; 20 nM TNFα trimer, 1 nM OregonGreen488 probe; read-out: TNF IC50
# Description: TNFα FP Competitive Binding Assay
# • 1. Assay Buffer: Prepare 1× Assay Buffer (Water with 47 mM HEPES, 47 mM NaCl, 0.9 mM EDTA, 0.0071% Triton X-100) by adding 25 mL of 1 M HEPES, 5 mL of 5 M NaCl, 1 mL of 0.5 M EDTA, and 375 μL of a 10% Triton X-100 stock to a fresh 500 mL bottle of water. • 2. Assay Mixture: Prepare fresh Assay Mixture containing 20 nM TNFα trimer (60 nM protein) and 1 nM 2′,7′-difluoro-3′,6′-dihydroxy-N-(2-(2-(2-((4-(isoquinolin-8-yl)-3-(4-(isoquinolin-8-yl)phenethoxy)benzyl)oxy)ethoxy)ethoxy)ethyl)-3-oxo-3H-spiro[isobenzofuran-1,9′-xanthene]-5-carboxamide probe in 1× Assay Buffer. Compound Plate Preparation Manual 12-Point 1:3 Dilution Plates: (384 Well Polypropylene Plates)
# Top concentration of compounds, 10 mM in DMSO, dispensed in rows A-O in columns 1 and 13. Compounds are serially diluted 1:3 with DMSO in columns 2-12 or 14-24 using a 16-channel Matrix pipettor. Plates stored at −20° C.
# Discovery Preps 12-Point 1:3 Dilution Plates: (384 Well Assay Plates)
# Top concentration, 5 mM in DMSO, of compounds placed in rows A-O in columns 1 and 13. Compounds are serially diluted 1:3 with DMSO in columns 2-12 or 14-24. Compound solutions are dispensed into replicate assay plates at 410 nL per well. Plates stored at 4° C.
# TNFα FP Competitive Binding Assay Protocol
# • 1. Compound plates warmed to rt. • 2. Fresh Assay Mixture is prepared. • 3. Assay Mixture (20 μL) is dispensed each well of 384 assay plates using a Thermo Multidrop Combi or 16-channel Matrix pipettor. If Manual 12-point 1:3 Dilution Plates are to be tested, Assay Mix is dispensed into empty plates. Discovery Preps 12-point 1:3 Dilution Plates already contain 410 nL compound solution in DMSO. • 4. For Manual 12-point 1:3 Dilution Plates, 0.7 μL is manually transferred using a 16-channel Matrix pipettor to replicate assay plates containing 20 μL Assay Mixture for a final top compound concentration of 338 μM (3.4% DMSO). • 5. For Discovery Preps 12-point 1:3 Dilution Plates, 20 μL Assay Mixture added the 410 nL compound solution already in the plates yields a final top compound concentration of 100 μM (2.0% DMSO). • 6. Background subtraction controls are wells P1-P8 containing only Assay Buffer. The low % inhibition controls are wells P9-P16 containing only Assay Mix. The high % inhibition are wells P17-P24 containing only 1 nM 2′,7′-difluoro-3′,6′-dihydroxy-N-(2-(2-(2-((4-(isoquinolin-8-yl)-3-(4-(isoquinolin-8-yl)phenethoxy)benzyl)oxy)ethoxy)ethoxy)ethyl)-3-oxo-3H-spiro[isobenzofuran-1,9′-xanthene]-5-carboxamide probe in 1× Assay Buffer. • 7. Plates are incubated at rt for 18-24 h in 37° C. incubator (CO2 is off). • 8. Prior to reading the assay, the plates are placed in a dark cabinet to equilibrate at rt for one hour. • 9. Background-subtracted fluorescence polarization (mP) is measured using a PerkinElmer Envision plate reader. • 10. Raw data is entered into Assay Explorer and dose-response curves are generated using a variable slope curve. Supplies, Materials, and Reagents
# TNFα trimer, sequence (P01375 77-233 limits assumed): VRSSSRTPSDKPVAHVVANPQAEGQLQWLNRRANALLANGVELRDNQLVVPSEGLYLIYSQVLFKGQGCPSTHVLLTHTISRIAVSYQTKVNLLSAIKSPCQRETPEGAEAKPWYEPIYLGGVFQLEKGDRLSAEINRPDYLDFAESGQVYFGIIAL
row,SMILES,IC50 [nM]
1,Cc1cc2c(=O)n(C)n(Cc3ccccc3OC(F)F)c2cc1-c1cnc(N2CCC(C(=O)O)CC2)nc1 [Example 13.3],1000 to 10000
2,Cn1c(=O)c2ccc(-c3cnc(N[C@@H]4CCOC4)nc3)cc2n1Cc1ccccc1OC(F)F [Example 2.24],1000 to 10000
3,Cn1c(=O)c2ccc(-c3cnc(N4CCC(C(=O)O)CC4)nc3)cc2n1Cc1ccccc1OC(F)F [Example 5.5],1000 to 10000
4,"CC(=O)N1CCN(c2ncc(-c3ccc4c(=O)n(C)n(Cc5cc(Cn6ccc(=O)[nH]6)ccc5OC(F)F)c4c3)cn2)C[C@H]1C [Example 101, (R)-6-(2-(4-Acetyl-3-methylpiperazin-1-yl)pyrimidin-5-yl)-1-(2-(difluoromethoxy)-5-((3-oxo-2,3-dihydro-H-pyrazol-1-yl)methyl)benzyl)-2-methyl-1,2-dihydro-3H-indazol-3-one]",1000 to 10000
5,Cc1ccnc(C(C)n2c3cc(-c4cnc(N5CCN(C(=O)CO)[C@H](C)C5)nc4)ccc3c(=O)n2C)c1 (stereo partly drawn) [Example 24.10],1000 to 10000
6,"Cn1c(=O)c2cnc(-c3cnc(N4CCOCC4)nc3)cc2n1Cc1ccccc1OC(F)F [Example 17, 1-(2-(Difluoromethoxy)benzyl)-2-methyl-6-(2-morpholinopyrimidin-5-yl)-1H-pyrazolo[4,3-c]pyridin-3(2H)-one]",> 10000
7,"Cn1c(=O)c2cc(F)c(-c3cnc(C(C)(C)O)nc3)cc2n1Cc1ccccc1OC(F)F [Example 40, 1-(2-(Difluoromethoxy)benzyl)-5-fluoro-6-(2-(2-hydroxypropan-2-yl)pyrimidin-5-yl)-2-methyl-1H-indazol-3(2H)-one]",1000 to 10000
8,"C[C@@H]1CN(c2ncc(-c3ccc4c(=O)n(C)n(Cc5ccccc5OC(F)F)c4c3)cn2)CCN1C(=O)[C@@H]1COC(C)(C)O1 [Example 38* Step 1, 1-(2-(Difluoromethoxy)benzyl)-6-(2-((R)-4-((S)-2,2-dimethyl-1,3-dioxolane-4-carbonyl)-3-methylpiperazin-1-yl)pyrimidin-5-yl)-2-methyl-1H-indazol-3(2H)-one]",< 1000
9,"Cc1ccc(OC(F)F)c(Cn2c3cc(C4=CCC(C(C)O)OC4)c(F)cc3c(=O)n2C)c1 (stereo not drawn) [Example #131, 1-(2-(Difluoromethoxy)-5-methylbenzyl)-5-fluoro-6-(6-(1-hydroxyethyl)-5,6-dihydro-2H-pyran-3-yl)-2-methyl-1H-indazol-3(2H)-one]",< 1000
10,CC(=O)N1CCN(c2ncc(-c3ccc4c(=O)n(C)n(Cc5cc(C)ccc5Cl)c4n3)cn2)C[C@H]1C [Example 18.3],< 1000
11,Cc1ccc(OC(F)F)c(Cn2c3cc(-c4cnc(N5CCN(C(=O)CN)[C@@H](C)C5)nc4)ccc3c(=O)n2C)c1 [Example 14.7],< 1000
12,Cc1ccc(OC(F)F)c(Cn2c3cc(-c4cnc(N5CCC[C@@H]5CO)nc4)ccc3c(=O)n2C)c1 [Example 22.8],1000 to 10000
13,Cn1c(=O)c2ccc(-c3cnc(N4CC5(CC(C(=O)O)C5)C4)nc3)cc2n1Cc1ccccc1OC(F)F [Example 2.17],1000 to 10000
14,"CC(=O)N1CCN(c2ncc(-c3ccc4c(=O)n(Cc5cccc(C#N)c5)n(Cc5ccccc5Cl)c4c3)cn2)C[C@H]1C [Example #134*, (R)-3-((6-(2-(4-Acetyl-3-methylpiperazin-1-yl)pyrimidin-5-yl)-1-(2-chlorobenzyl)-3-oxo-1H-indazol-2(3H)-yl)methyl)benzonitrile]",1000 to 10000
15,"CC(=O)N1CCC(O)(c2ncc(-c3ccc4c(=O)n(C)n(Cc5ccccc5OC(F)F)c4c3)cn2)CC1 [Example 32, 6-(2-(1-Acetyl-4-hydroxypiperidin-4-yl)pyrimidin-5-yl)-1-(2-(difluoromethoxy)benzyl)-2-methyl-1H-indazol-3(2H)-one]",1000 to 10000

# More lines, now with the values ahead:
row,IC50 [nM],SMILES
1,< 1000,"Cn1c(=O)c2ccc(-c3cnc(N4CCN5C(=O)NC[C@@H]5C4)nc3)cc2n1Cc1c(CO)cccc1OC(F)F [Example 66, (R)-7-(5-(1-(2-(difluoromethoxy)-6-(hydroxymethyl)benzyl)-2-methyl-3-oxo-2,3-dihydro-1H-indazol-6-yl)pyrimidin-2-yl)hexahydroimidazo[1,5-a]pyrazin-3(2H)-one]"
2,< 1000,"Cc1ccc(OC(F)F)c(Cn2c3nc(-c4cnc(N5CCN(C(=O)CO)C[C@H]5C)nc4)ccc3c(=O)n2C)c1 [Example 80, (R)-1-(2-(Difluoromethoxy)-5-methylbenzyl)-6-(2-(4-(2-hydroxyacetyl)-2-methylpiperazin-1-yl)pyrimidin-5-yl)-2-methyl-1H-pyrazolo[3,4-b]pyridin-3(2H)-one]"
3,< 1000,"C[C@@H]1CN(c2ncc(-c3ccc4c(=O)n(C)n(Cc5ccccc5OC(F)F)c4c3)cn2)CCN1C(=O)[C@@H](O)CC(=O)O [Example 51, (S)-4-((R)-4-(5-(1-(2-(Difluoromethoxy)benzyl)-2-methyl-3-oxo-2,3-dihydro-1H-indazol-6-yl)pyrimidin-2-yl)-2-methylpiperazin-1-yl)-3-hydroxy-4-oxobutanoic acid]"
4,< 1000,"Cc1ccc(OC(F)F)c(Cn2c3cc(-c4cnc(N5CCN(S(C)(=O)=O)[C@@H](C)C5)nc4)ccc3c(=O)n2C)c1 [Example 41, (S)-1-(2-(Difluoromethoxy)-5-methylbenzyl)-2-methyl-6-(2-(3-methyl-4-(methylsulfonyl)piperazin-1-yl)pyrimidin-5-yl)-1H-indazol-3(2H)-one]"
5,< 1000,CC(=O)N1CCN(c2ncc(-c3ccc4c(=O)n(C)n(Cc5cc(C)ccc5OC(F)F)c4c3)c(C)n2)[C@H](C)C1 [Example 22.14]
6,< 1000,Cn1c(=O)c2ccc(-c3ccnc(OC4CCOCC4)c3)cc2n1Cc1ccccc1OC(F)F [Example 10.11]
7,< 1000,"Cc1ccc(OC(F)F)c(Cn2c3cc(-c4cnn5c(C(C)(C)O)cnc5c4)ccc3c(=O)n2C)c1 [Example #135, 1-(2-(Difluoromethoxy)-5-methylbenzyl)-6-(3-(2-hydroxypropan-2-yl)imidazo[1,2-b]pyridazin-7-yl)-2-methyl-1H-indazol-3(2H)-one]"
8,< 1000,C[C@@H]1C[C@H](O)CCN1c1ncc(-c2ccc3c(=O)n(C)n(Cc4ccccc4OC(F)F)c3c2)cn1 [Example 10.9]
9,< 1000,Cn1c(=O)c2ccc(-c3cnc(N4CCN5C(=O)NC[C@@H]5C4)nc3)cc2n1Cc1nc(CO)ccc1OC(F)F [Example 84]
10,< 1000,CC(=O)N1CCN(c2ncc(-c3ccc4c(=O)n(C)n(Cc5c[nH]cc5C(F)(F)F)c4c3)cn2)C[C@H]1C [Example 27.5]
11,< 1000,"Cc1ccc(Cl)c(Cn2c3nc(-c4cnc(N5CCN(C(=O)CO)C[C@H]5C)nc4)ccc3c(=O)n2C)c1 [Example 81, (R)-1-(2-Chloro-5-methylbenzyl)-6-(2-(4-(2-hydroxyacetyl)-2-methylpiperazin-1-yl)pyrimidin-5-yl)-2-methyl-1H-pyrazolo[3,4-b]pyridin-3(2H)-one]"
12,< 1000,"C[C@@H]1C[C@@H](O)CCN1c1ncc(-c2ccc3c(=O)n(C)n(Cc4ccccc4OC(F)F)c3c2)cn1 [Example 19, 1-(2-(Difluoromethoxy)benzyl)-6-(2-((2R,4S)-4-hydroxy-2-methylpiperidin-1-yl)pyrimidin-5-yl)-2-methyl-1H-indazol-3(2H)-one]"
13,< 1000,CC(=O)N1CCN(c2ncc(-c3ccc4c(=O)n(C)n(Cc5cc(C)ccc5SC(F)F)c4n3)cn2)C[C@H]1C [Example 18.1]
14,< 1000,"Cn1c(=O)c2ccc(-c3cnc(N4CCN5C(=O)NC[C@@H]5C4)nc3)cc2n1Cc1cc(Cn2cncn2)ccc1OC(F)F [Example 113, (R)-7-(5-(1-(5-((1H-1,2,4-Triazol-1-yl)methyl)-2-(difluoromethoxy)benzyl)-2-methyl-3-oxo-2,3-dihydro-1H-indazol-6-yl)pyrimidin-2-yl)hexahydroimidazo[1,5-a]pyrazin-3(2H)-one]"
15,< 1000,"CC(=O)N1CCN(c2ncc(-c3ccc4c(=O)n(C)n(Cc5cn(C(C)=O)cc5C(F)(F)F)c4c3)cn2)C[C@H]1C [Example 119, (R)-6-(2-(4-Acetyl-3-methylpiperazin-1-yl)pyrimidin-5-yl)-1-((1-acetyl-4-(trifluoromethyl)-1H-pyrrol-3-yl)methyl)-2-methyl-1H-indazol-3(2H)-one]"
